Results reported in ChEMBL document CHEMBL3751766, “Synthesis and evaluation of atorvastatin esters as prodrugs metabolically activated by human carboxylesterases” (Bioorg Med Chem Lett, 2016).

What was measured:
Liver carboxylesterase 1 = molecular target: T1, Liver carboxylesterase 1 (Homo sapiens, UniProt P23141); test: Prodrug activation in human liver microsomes assessed as CES1-mediated compound hydrolysis at […] after 90 mins by HPLC analysis; conditions: 1.5 h
T1 sequence (P23141 whole entry): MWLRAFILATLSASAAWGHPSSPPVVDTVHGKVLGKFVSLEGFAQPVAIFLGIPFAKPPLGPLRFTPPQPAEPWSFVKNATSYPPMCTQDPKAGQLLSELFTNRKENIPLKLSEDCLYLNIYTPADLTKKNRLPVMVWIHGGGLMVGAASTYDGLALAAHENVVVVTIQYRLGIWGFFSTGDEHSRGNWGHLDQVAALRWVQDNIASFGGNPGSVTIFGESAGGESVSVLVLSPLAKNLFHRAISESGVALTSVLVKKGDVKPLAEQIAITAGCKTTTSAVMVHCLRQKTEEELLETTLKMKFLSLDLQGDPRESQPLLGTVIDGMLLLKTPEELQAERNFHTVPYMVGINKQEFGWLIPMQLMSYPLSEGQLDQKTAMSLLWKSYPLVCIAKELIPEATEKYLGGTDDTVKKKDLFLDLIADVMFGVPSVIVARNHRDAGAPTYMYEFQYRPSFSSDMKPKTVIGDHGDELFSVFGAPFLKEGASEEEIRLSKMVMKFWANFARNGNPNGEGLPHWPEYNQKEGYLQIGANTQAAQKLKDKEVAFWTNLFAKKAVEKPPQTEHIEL

Cocaine esterase = molecular target: T2, Cocaine esterase (Homo sapiens, UniProt O00748); test: Prodrug activation in human intestine microsomes assessed as CES2-mediated hydrolysis of compound at […] after 90 mins by HPLC analysis; conditions: 1.5 h
T2 sequence (O00748 whole entry): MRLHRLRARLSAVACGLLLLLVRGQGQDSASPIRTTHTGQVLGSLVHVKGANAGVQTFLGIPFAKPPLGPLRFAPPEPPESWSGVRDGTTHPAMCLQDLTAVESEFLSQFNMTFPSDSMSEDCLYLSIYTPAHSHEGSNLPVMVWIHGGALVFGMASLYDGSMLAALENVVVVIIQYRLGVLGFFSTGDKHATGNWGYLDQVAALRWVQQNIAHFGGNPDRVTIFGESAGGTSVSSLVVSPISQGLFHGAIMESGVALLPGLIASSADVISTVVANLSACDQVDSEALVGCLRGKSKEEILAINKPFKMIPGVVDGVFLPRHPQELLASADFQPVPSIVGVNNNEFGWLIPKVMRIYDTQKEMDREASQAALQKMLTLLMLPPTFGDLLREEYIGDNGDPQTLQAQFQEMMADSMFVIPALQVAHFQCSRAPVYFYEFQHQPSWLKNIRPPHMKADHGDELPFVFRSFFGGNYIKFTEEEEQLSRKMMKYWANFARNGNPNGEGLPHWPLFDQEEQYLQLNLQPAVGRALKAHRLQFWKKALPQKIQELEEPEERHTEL

[1] = Drug metabolism ratio of CES1 mediated compound hydrolysis in human liver microsomes to CES2-mediated compound hydrolysis in human intestine microsomes; type: ADME
[2] = Prodrug activation assessed as human carboxylesterase 1b-mediated compound hydrolysis at […] after 30 mins by HPLC analysis; conditions: isolated protein, 0.5 h
[3] = Prodrug activation assessed as human carboxylesterase1c-mediated compound hydrolysis at […] after 30 mins by HPLC analysis; conditions: isolated protein, 0.5 h
[4] = molecular target: T3, Arylacetamide deacetylase (Homo sapiens, UniProt P22760); test: Prodrug activation assessed as human AADAC-mediated compound hydrolysis at […] after 30 mins by HPLC analysis; conditions: 0.5 h
T3 sequence (P22760 whole entry): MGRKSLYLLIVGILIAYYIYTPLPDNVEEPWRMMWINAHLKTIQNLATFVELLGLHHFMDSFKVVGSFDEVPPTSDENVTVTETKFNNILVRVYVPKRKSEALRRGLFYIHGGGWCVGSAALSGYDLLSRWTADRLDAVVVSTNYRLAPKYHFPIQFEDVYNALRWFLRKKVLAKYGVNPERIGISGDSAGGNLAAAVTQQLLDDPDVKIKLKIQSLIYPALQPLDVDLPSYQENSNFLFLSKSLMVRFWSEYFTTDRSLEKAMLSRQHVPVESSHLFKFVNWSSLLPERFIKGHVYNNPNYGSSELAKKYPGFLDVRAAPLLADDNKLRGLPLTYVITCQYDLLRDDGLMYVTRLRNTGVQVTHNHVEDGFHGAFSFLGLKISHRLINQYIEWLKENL

| Drug metabolism (Liver carboxylesterase 1) | Drug metabolism (Cocaine esterase) | Ratio [1] | Drug metabolism [2] | Drug metabolism [3] | Drug metabolism [4] | Compound |
| --- | --- | --- | --- | --- | --- | --- |
| metabolite_detected | metabolite_detected | 4.9 | – | – | – | CC(C)c1c(C(=O)Nc2ccccc2)c(-c2ccccc2)c(-c2ccc(F)cc2)n1CC[C@@H](O)C[C@@H](O)CC(=O)OC1CCCCC1 |
| metabolite_detected | metabolite_detected | 3.4 | – | – | – | COc1ccc(OC(=O)C[C@H](O)C[C@H](O)CCn2c(-c3ccc(F)cc3)c(-c3ccccc3)c(C(=O)Nc3ccccc3)c2C(C)C)cc1 |
| metabolite_detected | metabolite_detected | 9.1 | – | – | – | CC(C)c1c(C(=O)Nc2ccccc2)c(-c2ccccc2)c(-c2ccc(F)cc2)n1CC[C@@H](O)C[C@@H](O)CC(=O)OCc1ccccc1 |
| metabolite_detected | metabolite_detected | 5.7 | – | – | – | CCCCOC(=O)C[C@H](O)C[C@H](O)CCn1c(-c2ccc(F)cc2)c(-c2ccccc2)c(C(=O)Nc2ccccc2)c1C(C)C |
| metabolite_detected | metabolite_detected | 3.8 | – | – | – | CC(C)c1c(C(=O)Nc2ccccc2)c(-c2ccccc2)c(-c2ccc(F)cc2)n1CC[C@@H](O)C[C@@H](O)CC(=O)Oc1ccccc1 |
| metabolite_detected | metabolite_detected | 4.4 | – | – | – | CCCCCCCCCCOC(=O)C[C@H](O)C[C@H](O)CCn1c(-c2ccc(F)cc2)c(-c2ccccc2)c(C(=O)Nc2ccccc2)c1C(C)C |
| metabolite_detected | metabolite_detected | 5.1 | metabolite_detected | metabolite_detected | metabolite_detected | C=CCOC(=O)C[C@H](O)C[C@H](O)CCn1c(-c2ccc(F)cc2)c(-c2ccccc2)c(C(=O)Nc2ccccc2)c1C(C)C |
| metabolite_detected | metabolite_detected | 40.1 | – | – | – | CCOC(=O)C[C@H](O)C[C@H](O)CCn1c(-c2ccc(F)cc2)c(-c2ccccc2)c(C(=O)Nc2ccccc2)c1C(C)C |
| metabolite_detected | metabolite_detected | 5.3 | – | – | – | CCCCCCCCOC(=O)C[C@H](O)C[C@H](O)CCn1c(-c2ccc(F)cc2)c(-c2ccccc2)c(C(=O)Nc2ccccc2)c1C(C)C |
| metabolite_detected | metabolite_detected | 1.9 | metabolite_detected | metabolite_detected | metabolite_detected | CC(C)c1c(C(=O)Nc2ccccc2)c(-c2ccccc2)c(-c2ccc(F)cc2)n1CC[C@@H](O)C[C@@H](O)CC(=O)Oc1ccc(F)cc1 |
| metabolite_detected | metabolite_detected | 30.5 | metabolite_detected | metabolite_detected | metabolite_detected | COC(=O)C[C@H](O)C[C@H](O)CCn1c(-c2ccc(F)cc2)c(-c2ccccc2)c(C(=O)Nc2ccccc2)c1C(C)C |
| metabolite_notdetected | metabolite_notdetected | 1.7 | – | – | – | CC(C)c1c(C(=O)Nc2ccccc2)c(-c2ccccc2)c(-c2ccc(F)cc2)n1CC[C@@H]1C[C@@H](O)CC(=O)O1 [ATORVASTATIN LACTONE] |
